Assay results reported in US20210322582A1, “RADIOACTIVE IMIDAZOTHIADIAZOLE DERIVATIVE COMPOUND” (Nihon Medi-Physics Co., Ltd., priority 2018, published 2021).
Several values for one entry are separate records, joined by “and”; a condition that tells them apart may be missing. Equal values may be shown once.

System: HT-29-transplanted tumor
Test: Biodistribution of [^111In]ITDA1 in HT-29 cancer-bearing mouse
Assay type: in vivo
Settings: for Accumulation of radioactivity: Blood / Accumulation of radioactivity: Brain / Accumulation of radioactivity: Heart / Accumulation of radioactivity: Intestines / Accumulation of radioactivity: Kidney / Accumulation of radioactivity: Liver / Accumulation of radioactivity: Lungs / Accumulation of radioactivity: Muscle / Accumulation of radioactivity: Pancreas / Accumulation of radioactivity: Spleen / Accumulation of radioactivity: Stomach / Accumulation of radioactivity: Tumor (HT-29) / Tumor/blood / Tumor/muscle: HT-29 mouse
Experimental: HT-29 cells (5×10^6 cells/mouse) were subcutaneously inoculated into the left shoulder of each of 5-week old male BALB/c nude mice (purchased from Shimizu Laboratory Supplies Co., Ltd., the same applies to the following Examples). A saline solution (100 μL) in which [^111In]ITDA1 (37 kBq) had been dissolved was administered to each of the HT-29 cancer-bearing mice (n=5) via the tail vein. The mice were slaughtered after the lapse of 1, 4, 8, and 24 hours from the administration, and the blood, spleen, pancreas, stomach, intestines, kidney, liver, heart, lungs, brain, HT-29-transplanted tumor, and muscle were recovered. The weight of each organ was measured, and the amount of radioactivity in each organ was measured by using a gamma counter. The accumulation of radioactivity in each organ was expressed by % ID (injected dose)/g obtained by dividing the ratio of the amount of radioactivity of each organ to the administered amount of radioactivity by the organ weight.

Accumulation of radioactivity: Blood (1 h after administration): 0.27 ± 0.03 % ID/tissue weight (g)
Accumulation of radioactivity: Brain (1 h after administration): 0.30 ± 0.02 % ID/tissue weight (g)
Accumulation of radioactivity: Heart (1 h after administration): 7.58 ± 1.20 % ID/tissue weight (g)
Accumulation of radioactivity: Intestines (1 h after administration): 10.86 ± 1.27 % ID/tissue weight (g)
Accumulation of radioactivity: Kidney (1 h after administration): 111.20 ± 12.39 % ID/tissue weight (g)
Accumulation of radioactivity: Liver (1 h after administration): 3.59 ± 0.98 % ID/tissue weight (g)
Accumulation of radioactivity: Lungs (1 h after administration): 13.49 ± 5.52 % ID/tissue weight (g)
Accumulation of radioactivity: Muscle (1 h after administration): 5.44 ± 1.59 % ID/tissue weight (g)
Accumulation of radioactivity: Pancreas (1 h after administration): 31.32 ± 5.29 % ID/tissue weight (g)
Accumulation of radioactivity: Spleen (1 h after administration): 0.33 ± 0.10 % ID/tissue weight (g)
Accumulation of radioactivity: Stomach (1 h after administration): 2.59 ± 0.69 % ID
Accumulation of radioactivity: Tumor (HT-29) (1 h after administration): 3.81 ± 0.79 % ID/tissue weight (g)
Tumor/blood (1 h after administration): 14.41 ± 3.35
Tumor/muscle (1 h after administration): 0.74 ± 0.25
Accumulation of radioactivity: Blood (4 h after administration): 0.25 ± 0.18 % ID/tissue weight (g)
Accumulation of radioactivity: Brain (4 h after administration): 0.35 ± 0.05 % ID/tissue weight (g)
Accumulation of radioactivity: Heart (4 h after administration): 3.49 ± 0.74 % ID/tissue weight (g)
Accumulation of radioactivity: Intestines (4 h after administration): 14.20 ± 1.28 % ID/tissue weight (g)
Accumulation of radioactivity: Kidney (4 h after administration): 115.12 ± 8.70 % ID/tissue weight (g)
Accumulation of radioactivity: Liver (4 h after administration): 3.86 ± 0.92 % ID/tissue weight (g)
Accumulation of radioactivity: Lungs (4 h after administration): 5.09 ± 1.69 % ID/tissue weight (g)
Accumulation of radioactivity: Muscle (4 h after administration): 2.69 ± 0.76 % ID/tissue weight (g)
Accumulation of radioactivity: Pancreas (4 h after administration): 18.81 ± 2.04 % ID/tissue weight (g)
Accumulation of radioactivity: Spleen (4 h after administration): 0.31 ± 0.12 % ID/tissue weight (g)
Accumulation of radioactivity: Stomach (4 h after administration): 5.22 ± 0.79 % ID
Accumulation of radioactivity: Tumor (HT-29) (4 h after administration): 4.20 ± 0.68 % ID/tissue weight (g)
Tumor/blood (4 h after administration): 21.70 ± 8.65
Tumor/muscle (4 h after administration): 1.62 ± 0.33
Accumulation of radioactivity: Blood (8 h after administration): 0.18 ± 0.02 % ID/tissue weight (g)
Accumulation of radioactivity: Brain (8 h after administration): 0.41 ± 0.05 % ID/tissue weight (g)
Accumulation of radioactivity: Heart (8 h after administration): 2.16 ± 0.31 % ID/tissue weight (g)
Accumulation of radioactivity: Intestines (8 h after administration): 14.99 ± 1.27 % ID/tissue weight (g)
Accumulation of radioactivity: Kidney (8 h after administration): 83.81 ± 7.88 % ID/tissue weight (g)
Accumulation of radioactivity: Liver (8 h after administration): 3.15 ± 0.78 % ID/tissue weight (g)
Accumulation of radioactivity: Lungs (8 h after administration): 3.54 ± 1.19 % ID/tissue weight (g)
Accumulation of radioactivity: Muscle (8 h after administration): 1.75 ± 0.37 % ID/tissue weight (g)
Accumulation of radioactivity: Pancreas (8 h after administration): 9.80 ± 2.34 % ID/tissue weight (g)
Accumulation of radioactivity: Spleen (8 h after administration): 0.21 ± 0.05 % ID/tissue weight (g)
Accumulation of radioactivity: Stomach (8 h after administration): 6.09 ± 0.82 % ID
Accumulation of radioactivity: Tumor (HT-29) (8 h after administration): 5.16 ± 0.62 % ID/tissue weight (g)
Tumor/blood (8 h after administration): 29.14 ± 5.15
Tumor/muscle (8 h after administration): 3.03 ± 0.66
Accumulation of radioactivity: Blood (24 h after administration): 0.16 ± 0.02 % ID/tissue weight (g)
Accumulation of radioactivity: Brain (24 h after administration): 0.48 ± 0.03 % ID/tissue weight (g)
Accumulation of radioactivity: Heart (24 h after administration): 1.56 ± 0.30 % ID/tissue weight (g)
Accumulation of radioactivity: Intestines (24 h after administration): 17.99 ± 1.59 % ID/tissue weight (g)
Accumulation of radioactivity: Kidney (24 h after administration): 65.13 ± 7.13 % ID/tissue weight (g)
Accumulation of radioactivity: Liver (24 h after administration): 2.21 ± 0.34 % ID/tissue weight (g)
Accumulation of radioactivity: Lungs (24 h after administration): 2.06 ± 0.66 % ID/tissue weight (g)
Accumulation of radioactivity: Muscle (24 h after administration): 1.43 ± 0.53 % ID/tissue weight (g)
Accumulation of radioactivity: Pancreas (24 h after administration): 8.13 ± 0.91 % ID/tissue weight (g)
Accumulation of radioactivity: Spleen (24 h after administration): 0.42 ± 0.18 % ID/tissue weight (g)
Accumulation of radioactivity: Stomach (24 h after administration): 8.74 ± 0.46 % ID
Accumulation of radioactivity: Tumor (HT-29) (24 h after administration): 8.71 ± 1.41 % ID/tissue weight (g)
Tumor/blood (24 h after administration): 53.56 and 53.56 ± 5.53
Tumor/muscle (24 h after administration): 6.59 and 6.59 ± 2.18
Accumulation in the HT-29-transplanted tumor (one hour after administration): 3.81 % ID/g
SMILES: NS(=O)(=O)c1nn2cc(-c3ccc(NC(=O)CN4CCN(CC(=O)O)CCN(CC(=O)O)CCN(CC(=O)O)CC4)cc3)nc2s1.[111In+3] [[^111In]ITDA1, [^111In]indium(III)2,2′,2″-(10-(2-oxo-2-((4-(2-sulfamoylimidazo[2,1-b][1,3,4]thiadiazol-6-yl)phenyl)amino)ethyl)-1,4,7,10-tetraazacyclododecan-1,4,7-triyl) triacetic acid]
